This is an account of results in patent publication US10100030B2 (Kissei Pharmaceutical Co., Ltd., priority 2013, dated 2018).

The target of one series is human NK1 receptor (Homo sapiens (Human), UniProt P25103). In words: Affinity for human NK1 receptor (125I-substance P receptor binding test). As to conditions: membrane fraction of human NK1 receptor-expressing 293T cells; read-out: IC50 (concentration required for 50% inhibition of 125I-substance P binding). As for the experimental part:
Affinity for Human NK1 Receptor
(3) Measurement of Binding Affinity to Human NK1 Receptor
(3-1) Preparation of Membrane Fraction from Human NK1 Receptor-expressing Cells
Human NK1 receptor-expressing cells were prepared in a 175 cm^2 culture flask (Nippon Becton Dickinson). The formation of a complex of the human NK1 receptor expression plasmid and Lipofectamine 2000 was performed by calculating the culture area ratio and increasing the scale of the method described in the above 2-4 by the ratio. The human NK1 receptor-expressing cells were collected in a buffer solution for the membrane fraction preparation (50 mM Tris (Wako Pure Chemical). 120 mM sodium chloride (Wako Pure Chemical Industries), 5 mM potassium chloride (Wako Pure Chemical Industries), 1 mM ethylenediaminetetraacetic acid (Sigma), 0.002 mg/mL chymostatin (Peptide Institute), 0.04 mg/ bacitracin (Wako Pure Chemical Industries), 0.005 mg/mL phosphoramidon (Peptide Institute) and 0.5 mM phenylmethylsulfonyl fluoride (Wako Pure Chemical Industries), pH7.4) and centrifuged at 1,880 g for 10 minutes, and the cell sediment was suspended in the buffer solution for the membrane fraction preparation. After freezing and thawing the cells once, the cells were homogenized using a Dounce-type homogenizer (cooled on ice, 1000 rpm, 20 times). The homogenized cell suspension was centrifuged at 20,000 rpm for 10 minutes, and the supernatant was removed to obtain cell sediment. The cell sediment was suspended again in the buffer solution for the membrane fraction preparation and homogenized using a Dounce-type homogenizer (cooled on ice, 1000 rpm, 30 times). The cell suspension was centrifuged at 20,000 rpm for 10 minutes, and the supernatant was removed to obtain cell sediment. The same homogenization and centrifugation were repeated again, and final cell sediment was obtained. The final cell sediment was suspended in a buffer solution for the receptor binding test (50 mM Tris (Wako Pure Chemical Industries), 3 mM manganese chloride (Wako Pure Chemical Industries), 0.002 mg/mL chymostatin (Peptide Institute), 0.04 mg/bacitracin (Wako Pure Chemical Industries) and 0.02% bovine serum albumin (Sigma), pH 7.4), and the protein concentration was measured using BCA Protein Assay Kit (Pierce).
(3-2) Receptor Binding Test
The buffer solution for the receptor binding test was dispensed to the wells of a 96-well assay plate (Greiner) at 22.5 μL/well. DMSO solutions of a test compound, which were prepared at an 80-time higher concentration using 100% dimethyl sulfoxide (DMSO), were added to the wells at 2.5 μL/well (final concentrations of 1 nM to 100 nM), and the solutions were mixed. As a radiolabeled ligand, ^125I-substance P (Substance P, [^125I]Tyr^8-, PerkinElmer) was used. ^125I-substance P was diluted with the buffer solution for the receptor binding test to a concentration resulting in […] and added to the 96-well assay plate, and the solutions were mixed. The membrane fraction prepared from the human NK1 receptor-expressing cells was diluted with the buffer solution for the receptor binding test to a concentration resulting in 8 to 10 μg/well, suspended until the suspension became in such a homogenous state that the suspension could flow through as 27G injection needle smoothly and then added to the 96-well assay plate at 150 μL/well. Then, the plate was incubated at room temperature for 60 minutes while shaking the plate. The reaction solutions were suction-filtered. through a multiscreen 96-well filter plate (Millipore) which had been pre-treated with 0.3% polyethyleneimine, and the reaction was terminated by washing with a washing solution (50 mM Tris and 0.02% bovine serum albumin, pH 7.4) four times. The bottom of the microplate was dried at 60° C., and then 100 μL/well of MicroScint 20 (PerkinElmer) was dispensed to the wells. The top of the plate was sealed with TopSeal A (PerkinElmer), and the plate was shaken for 5 to 10 minutes. […]

The target of the next series is hERG channel (Homo sapiens (Human), UniProt Q12809). In words: Evaluation of hERG current (whole-cell patch clamp). The series is classed as cell-based. As to conditions: 10 μM, application for 10 minutes, n = 3, average ± standard error. The protocol:
Evaluation of hERG Current
The hERG current was measured by a whole-cell method using a patch clamp system, where a cover glass on which hERG channel-expressing human embryonic kidney (HEK) 293 cells were seeded was placed on a perfusion bath and a perfusion solution was caused to flow. The change in the hERG channel-derived current caused by a pulse protocol (holding potential of −80 mV, depolarization pulse of +20 mV for 1.9 seconds, repolarization pulse of −50 mV for 2 seconds, stimulated at intervals of 15 seconds) of data acquisition/analysis software, pCLAMP9 (Axon Instruments, Inc.), was measured. The measurement conditions were a flow rate of about 1.5 mL/min and a temperature of about 33° C. Two wave forms just before applying the test compound and two wave forms immediately after the application for 10 minutes were analyzed, and the statistical analysis was performed. The value before the application of the test compound was regarded as 100%, and the change rate based on the value was determined.
In the table. Ex. No. means the Example number, and the value is the average±the standard error.

Series [1] relates to cisplatin-induced acute and delayed emetic response. The series can be described thus: Effect on cisplatin-induced acute and delayed emetic response. The series is classed as in vivo, ferret. As for the experimental part: No 1, 1 mg/kg, po) in the acute phase, and a value of control group, the group intravenously administered with 3 mg/kg of the compound of Example 1 (Ex. […] No 1, 1 mg/kg, po) in the delayed phase from the left respectively. The vertical axes show the number of retching and vomiting ([…]) (the mean+standard error of 5 examples of control group, the mean+standard error of 5 examples of the group intravenously administered, and the mean+standard error of 5 examples of the group orally administered). Effect on Cisplatin-induced Acute and Delayed Emetic Response The test compound solution was prepared by dissolving the test compound in a vehicle (a mixture of 50% N,N-dimethylformamide (Wako Pure Chemical Industries), 30% propylene glycol (Wako Pure Chemical Industries) and 4% 2-hydroxypropyl-β-cyclodextrin (Wako Pure Chemical Industries)). The vehicle only was administered to the control group. Under anesthesia with isoflurane, 3 mg/kg of the test compound was intravenously administered to a male ferret (Marshall BioResources Japan) from the jugular vein. Cisplatin, which was heated to 40-50° C., was intraperitoneally administered at 5 mg/kg one hour after the drug administration. […] The solvent only was administered to the control group. The test compound was orally administered to a male ferret (Marshall BioResources Japan). The oral administration was performed every 24 hours at 1 mg/kg three times in total. Cisplatin, which was heated to 40-50° C., was intraperitoneally administered at 5 mg/kg one hour after the first oral administration of the test compound.

Sequence of human NK1 receptor (P25103 whole entry): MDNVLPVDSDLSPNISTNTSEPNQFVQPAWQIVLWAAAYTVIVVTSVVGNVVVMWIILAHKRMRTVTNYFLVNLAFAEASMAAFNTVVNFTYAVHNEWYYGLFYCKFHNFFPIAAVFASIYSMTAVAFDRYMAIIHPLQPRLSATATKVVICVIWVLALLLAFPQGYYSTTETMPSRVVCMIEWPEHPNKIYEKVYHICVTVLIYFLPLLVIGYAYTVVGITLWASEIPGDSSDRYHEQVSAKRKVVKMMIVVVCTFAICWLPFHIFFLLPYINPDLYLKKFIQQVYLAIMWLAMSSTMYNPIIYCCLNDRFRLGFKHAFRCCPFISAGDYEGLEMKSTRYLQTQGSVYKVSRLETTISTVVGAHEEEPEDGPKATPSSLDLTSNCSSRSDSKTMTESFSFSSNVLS
Sequence of hERG channel (Q12809 whole entry): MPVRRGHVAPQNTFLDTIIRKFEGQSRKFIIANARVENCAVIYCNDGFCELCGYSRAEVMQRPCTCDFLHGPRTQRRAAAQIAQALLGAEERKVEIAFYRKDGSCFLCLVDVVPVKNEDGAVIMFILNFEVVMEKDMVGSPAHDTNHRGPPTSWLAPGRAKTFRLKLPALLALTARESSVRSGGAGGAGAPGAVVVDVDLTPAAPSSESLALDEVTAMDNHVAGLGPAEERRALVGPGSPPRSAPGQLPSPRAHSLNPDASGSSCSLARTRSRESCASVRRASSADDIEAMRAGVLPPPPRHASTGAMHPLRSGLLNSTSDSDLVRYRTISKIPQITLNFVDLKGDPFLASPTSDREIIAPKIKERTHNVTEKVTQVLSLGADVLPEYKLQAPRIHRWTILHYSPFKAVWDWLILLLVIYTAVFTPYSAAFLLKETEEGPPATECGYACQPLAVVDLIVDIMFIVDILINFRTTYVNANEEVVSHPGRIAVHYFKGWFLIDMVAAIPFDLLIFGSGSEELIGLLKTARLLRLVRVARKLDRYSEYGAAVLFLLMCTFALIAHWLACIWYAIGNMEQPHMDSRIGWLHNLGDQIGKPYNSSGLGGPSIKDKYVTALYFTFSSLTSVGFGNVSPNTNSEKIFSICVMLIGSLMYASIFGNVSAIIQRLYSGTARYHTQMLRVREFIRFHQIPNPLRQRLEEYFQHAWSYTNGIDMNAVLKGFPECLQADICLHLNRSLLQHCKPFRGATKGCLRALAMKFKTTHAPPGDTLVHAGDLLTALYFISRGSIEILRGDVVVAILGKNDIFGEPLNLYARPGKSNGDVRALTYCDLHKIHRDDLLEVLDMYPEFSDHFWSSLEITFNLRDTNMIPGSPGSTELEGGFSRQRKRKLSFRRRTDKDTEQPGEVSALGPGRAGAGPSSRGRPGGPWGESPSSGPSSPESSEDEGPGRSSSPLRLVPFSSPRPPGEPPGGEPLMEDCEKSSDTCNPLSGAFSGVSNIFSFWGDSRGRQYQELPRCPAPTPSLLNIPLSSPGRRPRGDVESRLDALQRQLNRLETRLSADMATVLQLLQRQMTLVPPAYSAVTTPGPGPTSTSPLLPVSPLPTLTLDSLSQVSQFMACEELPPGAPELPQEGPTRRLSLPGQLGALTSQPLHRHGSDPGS

Regarding `Cc1cc(F)ccc1-c1cc(N2CCC(CC(=O)O)CC2)ncc1N(C)C(=O)C(C)(C)c1cc(C(F)(F)F)cc(C(F)(F)F)c1` [Example 1], the IC50 at human NK1 receptor came out at 2.11 nM. For the same compound, at hERG channel, the “hERG current, % of value before application” value was found to be 93.9 ± 2.7%. In addition, the “number of retching and vomiting” value in series [1] (1 mg/kg po every 24 hours three times, acute phase (up to 24 hours after cisplatin)) is “inhibition of the number of retching and vomiting was observed”; in series [1] (1 mg/kg po every 24 hours three times, delayed phase (24 to 72 hours after cisplatin)), “inhibition of the number of retching and vomiting was observed”; in series [1] (3 mg/kg iv, acute phase (up to 24 hours after cisplatin)), “inhibition of the number of retching and vomiting was observed”; in series [1] (3 mg/kg iv, delayed phase (24 to 72 hours after cisplatin)) it was “inhibition of the number of retching and vomiting was observed”.
